From patent US10543212B2, “Substituted amines for treating cardiac diseases” (Cardurion Pharmaceuticals, LLC, priority 2017, dated 2020)
Where a name gives a salt, the structure may show the parent alone.

Molecular target: T1, Human full-length CaMKIIδ (Homo sapiens, UniProt Q13557)
T1 construct: Human full-length CaMKIIδ (Cat #02-111) was obtained from Carna Biosciences; GST; purchased Carna Biosciences 02-111
Assay: Human CaMKII enzyme inhibition assay (radiometric kinase assay)
Type: biochemical
Conditions: 3 μM compound, 500 nM ATP, 0.5 nM CaMKIIδ; for inhibition at 3 µM: read-out: CaMKIIδ inhibitory activity (%) at 3 μM
Description: In Vitro CaMKIIδ Inhibitory Activity was Evaluated by an Enzyme Assay.
Human CaMKII Enzyme Inhibition Assay
Kinase assay for CaMKIIs was performed using the radiometric assay. Human full-length CaMKIIδ (Cat #02-111) was obtained from Carna Biosciences (Kobe, Japan).
Enzyme reactions were performed in 25 mM HEPES, pH 7.5, with 5 mM magnesium chloride, 1 mM calcium chloride, 10 μg/mL Calmodulin, 2 mM DTT, 0.01% Tween20 and 500 nM ATP (0.2 μCi/well of [γ-33P] ATP) containing 0.5 nM CaMKIIδ and 0.1 μM autophosphorylation peptide (KKALRRQETVDAL)(Toray Research Center).
After incubating the enzyme, peptide, and compounds for 5 min, kinase reactions were initiated by adding ATP, followed by incubation for 60 min at room temperature in a total volume of 50 μL. The reactions were terminated by the addition of 10% trichloroacetic acid (final concentration). The [γ-33P]-phosphorylated proteins were filtered in a Harvest Plate (Merck Millipore) with a Cell Harvester (PerkinElmer) and then free [γ-33P] ATP was washed out with 3% phosphoric acid. The plates were dried, followed by the addition of 40 μl of MicroScintO (PerkinElmer). The radioactivity was counted by a TopCount scintillation counter (PerkinElmer). The signals of the reaction without enzyme were defined as 100% inhibitory activity and those of the reaction without inhibitors as 0% inhibitory activity. In vitro CaMKIIδ inhibitory activity was evaluated by % inhibitory activity of 3 μM compound concentration.

Q: With `COCCN1CCC(c2ccc(Nc3ncc(-c4ccc(C#N)c(O[C@@H](C)Cn5cnnn5)c4)cn3)c(OC)c2)CC1` [Example 85, 4-(2-((2-methoxy-4-(1-(2-methoxyethyl)piperidin-4-yl)phenyl)amino)pyrimidin-5-yl)-2-(((2S)-1-(1H-tetrazol-1-yl)propan-2-yl)oxy)benzonitrile] as the compound, how does the inhibition at 3 µM read?
A: Its inhibition at 3 µM is 98%.

Q: Which inhibition at 3 µM does the source give for `C[C@@H](Cn1cnnn1)Oc1cc(-c2cnc(Nc3cnn(C)c3)nc2)ccc1C#N` [Example 410, 4-(2-((1-methyl-1H-pyrazol-4-yl)amino)pyrimidin-5-yl)-2-(((2S)-1-(1H-tetrazol-1-yl)propan-2-yl)oxy)benzonitrile] here?
A: The inhibition at 3 µM was 99%.

Q: With `COc1cc(N2CCC(N3CCOCC3)CC2)ccc1Nc1ncc(-c2ccc(C#N)c(O[C@@H](C)Cn3cncn3)c2)cn1` [Example 8, 4-(2-((2-methoxy-4-(4-(morpholin-4-yl)piperidin-1-yl)phenyl)amino)pyrimidin-5-yl)-2-(((2S)-1-(1H-1,2,4-triazol-1-yl)propan-2-yl)oxy)benzonitrile hydrochloride] as the compound, how does the “CaMKIIδ inhibitory activity (%) at 3 μM” value (hydrochloride) read?
A: Its value is 98%.

Q: With `C[C@@H](O)Cn1cc(Nc2ncc(-c3ccc(C#N)c(O[C@@H](C)Cn4cncn4)c3)cn2)cn1` [Example 416, 4-(2-((1-((2R)-2-hydroxypropyl)-1H-pyrazol-4-yl)amino)pyrimidin-5-yl)-2-(((2S)-1-(1H-1,2,4-triazol-1-yl)propan-2-yl)oxy)benzonitrile] as the compound, how does the inhibition at 3 µM read?
A: Its inhibition at 3 µM is 98%.

Q: With `COc1cc(N2CCC(N3CCOCC3)CC2)ccc1Nc1ncc(-c2ccc(C#N)c(O[C@@H](C)Cn3cnnn3)c2)cn1` [Example 10, 4-(2-((2-methoxy-4-(4-(morpholin-4-yl)piperidin-1-yl)phenyl)amino)pyrimidin-5-yl)-2-(((2S)-1-(1H-tetrazol-1-yl)propan-2-yl)oxy)benzonitrile hydrochloride] as the compound, how does the inhibition at 3 µM read?
A: The inhibition at 3 µM was 98%.

Q: Which inhibition at 3 µM does the source give for `Cn1cc(Nc2ncc(-c3ccc(C#N)c(O[C@@H](CO)Cn4cccn4)c3)cn2)cn1` [Example 402, 2-(((2R)-1-hydroxy-3-(1H-pyrazol-1-yl)propan-2-yl)oxy)-4-(2-((1-methyl-1H-pyrazol-4-yl)amino)pyrimidin-5-yl)benzonitrile] here?
A: The inhibition at 3 µM was 82%.

Q: With `COc1cc(N2CCC(N3CCCCC3)CC2)ccc1Nc1ncc(-c2ccc(C#N)c(O[C@@H](C)Cn3cnnn3)c2)cn1` [Example 45, 4-(2-((4-(1,4′-bipiperidine-1′-yl)-2-methoxyphenyl)amino)pyrimidin-5-yl)-2-(((2S)-1-(1H-tetrazol-1-yl)propan-2-yl)oxy)benzonitrile] as the compound, how does the inhibition at 3 µM read?
A: The inhibition at 3 µM was 99%.

Q: With `COc1ccccc1Nc1ncc(-c2ccc(C#N)c(O[C@@H](C)Cn3cnnn3)c2)cn1` [Example 16, 4-(2-((2-methoxy-phenyl)amino)pyrimidin-5-yl)-2-(((2S)-1-(1H-tetrazol-1-yl)propan-2-yl)oxy)benzonitrile] as the compound, how does the inhibition at 3 µM read?
A: Its inhibition at 3 µM is 99%.

Q: For `Cc1nn(C)cc1Nc1ncc(-c2ccc(C#N)c(O[C@@H](C)Cn3cnnn3)c2)cn1` [Example 372, 4-(2-((1,3-dimethyl-1H-pyrazol-4-yl)amino)pyrimidin-5-yl)-2-(((2S)-1-(1H-tetrazol-1-yl)propan-2-yl)oxy)benzonitrile], which inhibition at 3 µM is on record?
A: The inhibition at 3 µM was 98%.

Q: Which inhibition at 3 µM does the source give for `C[C@@H](Cc1ccn[nH]1)Oc1cc(-c2cnc(Nc3cnn(C)c3)nc2)ccc1C#N` [Example 412, 4-(2-((1-methyl-1H-pyrazol-4-yl)amino)pyrimidin-5-yl)-2-(((2S)-1-(1H-pyrazol-5-yl)propan-2-yl)oxy)benzonitrile] here?
A: The inhibition at 3 µM was 96%.

Q: Which inhibition at 3 µM does the source give for `COc1cc(C2CCN(C3COC3)CC2)ccc1Nc1ncc(-c2ccc(C#N)c(O[C@@H](C)Cn3cnnn3)c2)cn1` [Example 75, 4-(2-((2-methoxy-4-(1-(oxetan-3-yl)piperidin-4-yl)phenyl)amino)pyrimidin-5-yl)-2-(((2S)-1-(1H-tetrazol-1-yl)propan-2-yl)oxy)benzonitrile] here?
A: Its inhibition at 3 µM is 98%.

Q: For `Cc1nn(C(C)C)cc1Nc1ncc(-c2ccc(C#N)c(O[C@@H](C)Cn3cncn3)c2)cn1` [Example 358, 4-(2-((1-isopropyl-3-methyl-1H-pyrazol-4-yl)amino)pyrimidin-5-yl)-2-(((2S)-1-(1H-1,2,4-triazol-1-yl)propan-2-yl)oxy)benzonitrile], which inhibition at 3 µM is on record?
A: The inhibition at 3 µM was 93%.

Q: Which inhibition at 3 µM does the source give for `Cc1nn(C)cc1Nc1ncc(-c2ccc(C#N)c(O[C@@H](C)Cn3cncn3)c2)cn1` [Example 357, 4-(2-((1,3-dimethyl-1H-pyrazol-4-yl)amino)pyrimidin-5-yl)-2-(((2S)-1-(1H-1,2,4-triazol-1-yl)propan-2-yl)oxy)benzonitrile] here?
A: The inhibition at 3 µM was 96%.

Q: `C[C@@H](Cn1cncn1)Oc1cc(-c2cnc(Nc3cn(C)nc3C(F)(F)F)nc2)ccc1C#N` [Example 376, 4-(2-((1-methyl-3-(trifluoromethyl)-1H-pyrazol-4-yl)amino)pyrimidin-5-yl)-2-(((2S)-1-(1H-1,2,4-triazol-1-yl)propan-2-yl)oxy)benzonitrile] was tested. Which inhibition at 3 µM did it give?
A: The inhibition at 3 µM was 97%.

Q: Which inhibition at 3 µM does the source give for `COc1nc(N2CCC(N3CCOCC3)CC2)ccc1Nc1ncc(-c2ccc(Cl)c(O[C@@H](C)Cn3cnnn3)c2)cn1` [Example 212, 5-(4-chloro-3-(((2S)-1-(1H-tetrazol-1-yl)propan-2-yl)oxy)phenyl)-N-(2-methoxy-6-(4-(morpholin-4-yl)piperidin-1-yl)pyridin-3-yl)pyrimidin-2-amine] here?
A: Its inhibition at 3 µM is 99%.

Q: Which inhibition at 3 µM does the source give for `COc1ccc(N2CCC(N3CCOCC3)CC2)cc1Nc1ncc(-c2ccc(Cl)c(O[C@@H](C)Cn3cnnn3)c2)cn1` [Example 214, 5-(4-chloro-3-(((2S)-1-(1H-tetrazol-1-yl)propan-2-yl)oxy)phenyl)-N-(2-methoxy-5-(4-(morpholin-4-yl)piperidin-1-yl)phenyl)pyrimidin-2-amine] here?
A: The inhibition at 3 µM was 100%.

Q: With `COc1cc(N2CCC(N3CCOCC3)CC2)ccc1Nc1ncc(-c2ccc(C#N)c(O[C@@H](C)Cn3ncnn3)c2)cn1` [Example 5, 4-(2-((2-methoxy-4-(4-(morpholin-4-yl)piperidin-1-yl)phenyl)amino)pyrimidin-5-yl)-2-(((2S)-1-(2H-tetrazol-2-yl)propan-2-yl)oxy)benzonitrile] as the compound, how does the inhibition at 3 µM read?
A: Its inhibition at 3 µM is 98%.

Q: For `CC(C)n1cc(Nc2ncc(-c3ccc(C#N)c(O[C@@H](C)Cn4cnnn4)c3)cn2)cn1` [Example 374, 4-(2-((1-isopropyl-1H-pyrazol-4-yl)amino)pyrimidin-5-yl)-2-(((2S)-1-(1H-tetrazol-1-yl)propan-2-yl)oxy)benzonitrile], which inhibition at 3 µM is on record?
A: Its inhibition at 3 µM is 97%.

Q: With `C[C@@H](Cn1cncn1)Oc1cc(-c2cnc(Nc3cnn(CC(C)(C)C#N)c3)nc2)ccc1C#N` [Example 365, 4-(2-((1-(2-cyano-2-methylpropyl)-1H-pyrazol-4-yl)amino)pyrimidin-5-yl)-2-(((2S)-1-(1H-1,2,4-triazol-1-yl)propan-2-yl)oxy)benzonitrile] as the compound, how does the inhibition at 3 µM read?
A: The inhibition at 3 µM was 98%.

Q: `COc1cc(CNC2CC2)ccc1Nc1ncc(-c2ccc(C#N)c(O[C@@H](C)Cn3cnnn3)c2)cn1` [Example 52, 4-(2-((4-((cyclopropylami-no)methyl)-2-methoxy-phenyl)amino)pyrimidin-5-yl)-2-(((2S)-1-(1H-tetrazol-1-yl)propan-2-yl)oxy)benzonitrile hydrochloride] was tested. Which inhibition at 3 µM did it give?
A: The inhibition at 3 µM was 100%.

Q: `COc1cc(N2CCC(N3CCOCC3)CC2)ncc1Nc1ncc(-c2ccc(C#N)c(O[C@@H](C)Cn3cnnn3)c2)cn1` [Example 57, 4-(2-((4-methoxy-6-(4-(morpholin-4-yl)piperidin-1-yl)pyridin-3-yl)amino)pyrimidin-5-yl)-2-(((2S)-1-(1H-tetrazol-1-yl)propan-2-yl)oxy)benzonitrile] was tested. Which inhibition at 3 µM did it give?
A: Its inhibition at 3 µM is 99%.

Q: `COc1cc(N2CCC(N3C4CCC3COC4)CC2)ccc1Nc1ncc(-c2ccc(Cl)c(O[C@@H](C)Cn3cnnn3)c2)cn1` [Example 210, 5-(4-chloro-3-(((2S)-1-(1H-tetrazol-1-yl)propan-2-yl)oxy)phenyl)-N-(2-methoxy-4-(4-(3-oxa-8-azabicyclo[3.2.1]oct-8-yl)piperidin-1-yl)phenyl)pyrimidin-2-amine] was tested. Which inhibition at 3 µM did it give?
A: The inhibition at 3 µM was 100%.

Q: Which inhibition at 3 µM does the source give for `COc1cc(N2CCC(N3CCOCC3)CC2)ccc1Nc1ncc(-c2ccc(Cl)c(O[C@@H](C)Cn3cnnn3)c2)cn1` [Example 60, 5-(4-chloro-3-(((2S)-1-(1H-tetrazol-1-yl)propan-2-yl)oxy)phenyl)-N-(2-methoxy-4-(4-(morpholin-4-yl)piperidin-1-yl)phenyl)pyrimidin-2-amine] here?
A: Its inhibition at 3 µM is 99%.

Q: How did the inhibition at 3 µM turn out when `C[C@@H](Cn1cncn1)Oc1cc(-c2cnc(Nc3cnn(CC(F)(F)F)c3)nc2)ccc1C#N` [Example 362, 2-(((2S)-1-(1H-1,2,4-triazol-1-yl)propan-2-yl)oxy)-4-(2-((1-(2,2,2-trifluoroethyl)-1H-pyrazol-4-yl)amino)pyrimidin-5-yl)benzonitrile] was run?
A: The inhibition at 3 µM was 97%.

Q: With `COc1cc(N2CCC(N3C[C@H]4CC[C@@H](C3)O4)CC2)ccc1Nc1ncc(-c2ccc(Cl)c(O[C@@H](C)Cn3cnnn3)c2)cn1` [Example 213, 5-(4-chloro-3-(((2S)-1-(1H-tetrazol-1-yl)propan-2-yl)oxy)phenyl)-N-(2-methoxy-4-(4-((1R,5S)-8-oxa-3-azabicyclo[3.2.1]oct-3-yl)piperidin-1-yl)phenyl)pyrimidin-2-amine] as the compound, how does the inhibition at 3 µM read?
A: The inhibition at 3 µM was 100%.
